One may read the IC50 as the concentration needed to halve the response being measured. Lower therefore signals inhibition by little substance.

We go through one compound from PMC7419506, “KN3014, a piperidine-containing small compound, inhibits auto-secretion of IL-1β from PBMCs in a patient with Muckle–Wells syndrome” (Scientific Reports, 2020).

The target in the assay is T1, ASC (Homo sapiens, UniProt Q96P20+Q9ULZ3).
T1 construct: gene PYCARD; FLAG-ASC-PYD (N-terminal FLAG-tagged pyrin domain of ASC); with NLRP3 (NLRP3-FL-Btn, C-terminal biotinylated full-length)
As to the kind of experiment: ALPHA-screen protein-protein interaction inhibition, wheat germ cell-free synthesized proteins. Type of assay: binding. The text has this: ALPHA-screen protein-protein interaction inhibition, wheat germ cell-free synthesized proteins on ASC | The interaction between NLRP3-FL-Btn and FLAG-ASC-PYD was disrupted by both KN3014 and KN8311 in a dose-dependent manner.
(In general: Bead proximity is the source of the signal in Alpha formats.)

T1 sequence (Q9ULZ3 1-91 limits assumed): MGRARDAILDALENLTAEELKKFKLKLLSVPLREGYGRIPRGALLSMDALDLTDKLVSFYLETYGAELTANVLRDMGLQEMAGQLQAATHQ
T1 sequence (Q96P20 whole entry, the tested form may be a part): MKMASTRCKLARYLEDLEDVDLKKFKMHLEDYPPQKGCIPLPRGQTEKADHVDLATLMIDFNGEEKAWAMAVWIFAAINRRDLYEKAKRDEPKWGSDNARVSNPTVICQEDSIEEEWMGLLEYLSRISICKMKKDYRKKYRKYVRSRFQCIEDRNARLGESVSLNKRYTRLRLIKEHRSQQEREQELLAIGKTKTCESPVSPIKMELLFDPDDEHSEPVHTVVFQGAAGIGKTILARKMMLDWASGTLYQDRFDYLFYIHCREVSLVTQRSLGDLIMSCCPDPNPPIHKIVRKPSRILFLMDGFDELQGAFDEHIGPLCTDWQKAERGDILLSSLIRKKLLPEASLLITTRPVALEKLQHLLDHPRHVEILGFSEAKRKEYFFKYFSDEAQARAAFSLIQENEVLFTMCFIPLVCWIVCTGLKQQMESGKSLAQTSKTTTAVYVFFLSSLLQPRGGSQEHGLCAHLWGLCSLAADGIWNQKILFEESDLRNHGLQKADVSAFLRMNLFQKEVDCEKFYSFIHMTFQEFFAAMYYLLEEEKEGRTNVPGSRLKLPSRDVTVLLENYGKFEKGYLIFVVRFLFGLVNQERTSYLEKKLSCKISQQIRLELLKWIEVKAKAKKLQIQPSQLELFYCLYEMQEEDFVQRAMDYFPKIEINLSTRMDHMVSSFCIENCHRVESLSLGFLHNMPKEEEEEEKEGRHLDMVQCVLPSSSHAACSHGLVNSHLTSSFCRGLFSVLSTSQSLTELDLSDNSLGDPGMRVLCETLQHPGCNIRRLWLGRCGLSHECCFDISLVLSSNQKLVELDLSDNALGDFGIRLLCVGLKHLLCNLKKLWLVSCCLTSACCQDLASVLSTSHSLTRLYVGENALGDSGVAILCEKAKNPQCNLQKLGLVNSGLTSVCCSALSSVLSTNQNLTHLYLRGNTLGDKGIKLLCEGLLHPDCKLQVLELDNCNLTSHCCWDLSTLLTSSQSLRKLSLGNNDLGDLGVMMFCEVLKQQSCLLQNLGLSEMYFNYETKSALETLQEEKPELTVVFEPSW

As for `Cc1ccccc1OCC(=O)NCC(c1ccc2c(c1)CCCN2C)N1CCCCC1` (stereo not shown) [KN3014, N-(2-(1-methyl-1,2,3,4-tetrahydroquinolin-6-yl)-2-(piperidin-1-yl)ethyl)-2-(o-tolyloxy)acetamide], it took 14.6 µM to reach half-maximal inhibition (IC50).
